Measured values as given in patent US8834843B2, “Imaging method” (GE Healthcare Limited, priority 2007, dated 2014).
pKi: −log10 of the molar value. “Also recorded” adds a separate entry of the source. Read-outs that look alike come from different tables or passages of the source. Numbered stars: 1 amine (or outer) side, 2 acyl side, 3 side chain; on linkers, the order of the positions; unused ones are H or OH. Bridge positions count the residues as written; N and C are the ends. Side chains are listed from the residue outwards. Peptide text beside a SMILES is read from it. * marks the point of attachment. X1 = C/C(=N\O)C(C)(C)NCCC(CCNC(C)(C)/C(C)=N/O)CCN*; Glutaryl = O=C(CCCC(=O)[*:2])[*:1]; X2 = NC(=O)COCC(=O)NCCOCCOCCOCCN*

Key:
[1] = molecular target: EA-Hy926 membranes; experiment: Competitive binding assay with 125I-echistatin on EA-Hy926 membranes; parameters: species or system human; conditions: cold compound vs 125I-echistatin, 1 hour at 37° C.; read-out: Ki in the EA-Hy926 membrane assay
Description: The inhibition constant of Compound 6 was measured using a previously-described membrane binding assay (Indrevoll et al, Bioorg & Med Chem Lett, 2006, 16, 6190-6193).
In brief, membranes from the human endothelial adenocarcinoma cell line EA-Hy926 were prepared and the Kd calculated for the purified membrane fraction. A competitive binding assay was then established to measure inhibition constants for cold Compound 6. ^125I-echistatin was used as the labelled ligand and cold echistatin as a reference standard.
A total of sixteen dilutions of cold test compound (either cold echistatin or cold Compound 6) were prepared and mixed with a combination of ^125I-echistatin and membrane prior to incubation for 1 hour at 37° C. Following several washes, the bound material was harvested on a filter using a Skatron micro harvester. The filterspots were finally excised and counted in a Packard γ-counter.
The inhibition constants for Compound 3 and Compound 8 were determined using the method described in Example 1. FIG. 3 illustrates binding of ^125I-echistatin versus cold Compound 3, Compound 8 and echistatin on EA-Hy926 membranes.

[2] = tested on: fibrogenic livers in BDL model; experiment: Liver uptake in BDL vs sham rats at 15 days post-op, vs negative control; type: in vivo, rat; conditions: one hour post-injection
Description: (§1) On the appropriate day post surgery BDL and sham animals were removed and put under isoflurane anaesthesia, then each animal was injected with 0.3 ml intravenously (i.v.) via tail vein (˜3MBq). At the appropriate time point post-injection of the test item, each animal was re-anaesthetised with isoflurane, sacrificed by cervical dislocation weighed and the weight recorded via a barcode scanning system. Each animal was dissected and the following organs and tissues were removed and counted using BASIL counter protocol 40 or manual counting:
The BDL and sham animal models were set up as described in Example 3. At 15 days post-operatively, one of Compound 3, Compound 8 or a negative control was administered to each animal and liver uptake assessed as described in Example 3.

[3] = Biodistribution in sham-operated rats with and without excess cold compound; type: in vivo; conditions: male, Sprague Dawley, rat, iv, total radioactivity, 15 days post-op, 1 hour post-injection; for dose excreted at 1 h: bile and urine
Description: as §1
The recorded activity in a whole organ (e.g., liver) was corrected for background radioactivity and for radioactive decay and the biodistribution of radioactivity calculated by reference to Formula I:
[formula] where: • A=counts per second measured in organ • B=total counts per second measured in all samples (excluding the injection site)
The percentage of injected radioactivity in the weighed tissue samples (e.g., blood) was calculated to give % i.d. in the entire tissue by reference to Formula 2:
[formula] where: • Zs=counts per second in sample • Ws=weight of sample in grams • Wb=weight of animal in grams immediately after sacrifice • B=total counts per second measured in all the samples (excluding the injection site) • F=tissue specific factor representing the mass of the tissue as a proportion of the total body weight of the animal
The biodistribution of radioactivity was investigated in 15 days post-operatively in BDL and sham-operated male Sprague Dawley rats (procedures described in Example 3) 1 hour following of intravenous injection via tail vein of ˜3 MBq of Compound 8, both before and after addition of 1:100 and 1:10,000 fold excess of cold Compound 8. At the appropriate time point post-injection of the test Item, each animal was re-anaesthetised with isoflurane, sacrificed by cervical dislocation and weighed. Each animal was dissected and organs and tissues (see Tables 5 and 6 below) were removed and counted using BASIL counter protocol 40 or manual counting.

## C/C(=N\O)C(C)(C)NCCC(CCNC(=O)CCCC(=O)NCCCC[C@@H]1NC(=O)CSC[C@@H](C(=O)NCCOCCOCCOCCNC(=O)COCC(N)=O)NC(=O)[C@H](Cc2ccccc2)NC(=O)[C@@H]2CSSC[C@H](NC1=O)C(=O)N[C@@H](CCCNC(=N)N)C(=O)NCC(=O)N[C@@H](CC(=O)O)C(=O)N2)CCNC(C)(C)/C(C)=N/O (some centres unmarked) [Compound 8] ({CH2CO}-K([Glutaryl-X1])CRGDCFC-X2; disulfide 2-6; thioether N-8)
[1]
  pKi: 8.22
[2]
  Liver retention/uptake in BDL compared to sham animals (in words): significantly higher liver uptake; also recorded: significantly retained
[3]; +10K-fold excess cold Compound 8
  dose excreted at 1 h: 46.5%
[3]; +100-fold excess cold Compound 8
  dose excreted at 1 h: 43.2%
[3]; no excess
  dose excreted at 1 h: 44.6%
[3]; blood, +10K-fold excess cold Compound 8, read-out: Activity in Blood, Mean
  tissue uptake dose at 1 h: 1.4 %ID
[3]; blood, +100-fold excess cold Compound 8, read-out: Activity in Blood, Mean
  tissue uptake dose at 1 h: 1.37 %ID
[3]; blood, no excess, read-out: Activity in Blood, Mean
  tissue uptake dose at 1 h: 1.55 %ID
[3]; bone, 3 MBq, +10K-fold excess cold Compound 8, read-out: Activity in Bone, Mean
  tissue uptake dose at 1 h: 2.42 %ID
[3]; bone, 3 MBq, +100-fold excess cold Compound 8, read-out: Activity in Bone, Mean
  tissue uptake dose at 1 h: 3.06 %ID
[3]; bone, 3 MBq, no excess, read-out: Activity in Bone, Mean
  tissue uptake dose at 1 h: 3.1 %ID
[3]; carcass, 3 MBq, +10K-fold excess cold Compound 8, read-out: Activity in Carcass, Mean
  tissue uptake dose at 1 h: 11.6 %ID
[3]; carcass, 3 MBq, +100-fold excess cold Compound 8, read-out: Activity in Carcass, Mean
  tissue uptake dose at 1 h: 9.32 %ID
[3]; carcass, 3 MBq, no excess, read-out: Activity in Carcass, Mean
  tissue uptake dose at 1 h: 8.45 %ID
[3]; heart, 3 MBq, +10K-fold excess cold Compound 8, read-out: Activity in Heart, Mean
  tissue uptake dose at 1 h: 0.1 %ID
[3]; heart, 3 MBq, +100-fold excess cold Compound 8, read-out: Activity in Heart, Mean
  tissue uptake dose at 1 h: 0.1 %ID
[3]; heart, 3 MBq, no excess, read-out: Activity in Heart, Mean
  tissue uptake dose at 1 h: 0.12 %ID
[3]; injection site, 3 MBq, +10K-fold excess cold Compound 8, read-out: Activity in Injection Site, Mean
  tissue uptake dose at 1 h: 1.71 %ID
[3]; injection site, 3 MBq, +100-fold excess cold Compound 8, read-out: Activity in Injection Site, Mean
  tissue uptake dose at 1 h: 1.44 %ID
[3]; injection site, 3 MBq, no excess, read-out: Activity in Injection Site, Mean
  tissue uptake dose at 1 h: 1.66 %ID
[3]; kidneys, +10K-fold excess cold Compound 8, read-out: Activity in Kidneys, Mean
  tissue uptake dose at 1 h: 3.65 %ID
[3]; kidneys, +100-fold excess cold Compound 8, read-out: Activity in Kidneys, Mean
  tissue uptake dose at 1 h: 4.13 %ID
[3]; kidneys, no excess, read-out: Activity in Kidneys, Mean
  tissue uptake dose at 1 h: 4.07 %ID
[3]; liver, 3 MBq, +10K-fold excess cold Compound 8, read-out: Activity in Liver, Mean
  tissue uptake dose at 1 h: 3.03 %ID
[3]; liver, 3 MBq, +100-fold excess cold Compound 8, read-out: Activity in Liver, Mean
  tissue uptake dose at 1 h: 3.52 %ID
[3]; liver, 3 MBq, no excess, read-out: Activity in Liver, Mean
  tissue uptake dose at 1 h: 3.71 %ID
[3]; lung, 3 MBq, +10K-fold excess cold Compound 8, read-out: Activity in Lung, Mean
  tissue uptake dose at 1 h: 0.39 %ID
[3]; lung, 3 MBq, +100-fold excess cold Compound 8, read-out: Activity in Lung, Mean
  tissue uptake dose at 1 h: 0.38 %ID
[3]; lung, 3 MBq, no excess, read-out: Activity in Lung, Mean
  tissue uptake dose at 1 h: 0.46 %ID
[3]; muscle, 3 MBq, +100-fold excess cold Compound 8, read-out: Activity in Muscle, Mean
  tissue uptake dose at 1 h: 10.9 %ID
[3]; muscle, 3 MBq, no excess, read-out: Activity in Muscle, Mean
  tissue uptake dose at 1 h: 10.4 %ID
[3]; muscle, +10K-fold excess cold Compound 8, read-out: Activity in Muscle, Mean
  tissue uptake dose at 1 h: 8.41 %ID
[3]; skin, 3 MBq, +10K-fold excess cold Compound 8, read-out: Activity in Skin, Mean
  tissue uptake dose at 1 h: 12.7 %ID
[3]; skin, 3 MBq, +100-fold excess cold Compound 8, read-out: Activity in Skin, Mean
  tissue uptake dose at 1 h: 14 %ID
[3]; skin, 3 MBq, no excess, read-out: Activity in Skin, Mean
  tissue uptake dose at 1 h: 14.4 %ID
[3]; small and large intestine, 3 MBq, +10K-fold excess cold Compound 8, read-out: Activity in Small & Large Intestine, Mean
  tissue uptake dose at 1 h: 7.54 %ID
[3]; small and large intestine, 3 MBq, +100-fold excess cold Compound 8, read-out: Activity in Small & Large Intestine, Mean
  tissue uptake dose at 1 h: 8.42 %ID
[3]; small and large intestine, 3 MBq, no excess, read-out: Activity in Small & Large Intestine, Mean
  tissue uptake dose at 1 h: 7.86 %ID
[3]; spleen, 3 MBq, +10K-fold excess cold Compound 8, read-out: Activity in Spleen, Mean
  tissue uptake dose at 1 h: 0.27 %ID
[3]; spleen, 3 MBq, +100-fold excess cold Compound 8, read-out: Activity in Spleen, Mean
  tissue uptake dose at 1 h: 0.29 %ID
[3]; spleen, 3 MBq, no excess, read-out: Activity in Spleen, Mean
  tissue uptake dose at 1 h: 0.29 %ID
[3]; stomach, 3 MBq, +10K-fold excess cold Compound 8, read-out: Activity in Stomach, Mean
  tissue uptake dose at 1 h: 1.92 %ID
[3]; stomach, 3 MBq, +100-fold excess cold Compound 8, read-out: Activity in Stomach, Mean
  tissue uptake dose at 1 h: 1.21 %ID
[3]; stomach, 3 MBq, no excess, read-out: Activity in Stomach, Mean
  tissue uptake dose at 1 h: 0.9 %ID
[3]; thyroid, 3 MBq, +10K-fold excess cold Compound 8, read-out: Activity in Thyroid, Mean
  tissue uptake dose at 1 h: 0.04 %ID
[3]; thyroid, 3 MBq, +100-fold excess cold Compound 8, read-out: Activity in Thyroid, Mean
  tissue uptake dose at 1 h: 0.05 %ID
[3]; thyroid, 3 MBq, no excess, read-out: Activity in Thyroid, Mean
  tissue uptake dose at 1 h: 0.05 %ID
